According to BindingDB's records for doi:10.1021/jm400930e (Ocean University of China, 2013):
pEC50: −log10 of the molar value.

Assay: Modulation of p-gp (unknown origin) transfected in human MDA435/LCC6MDR cells assessed as reversal of paclitaxel resistance

COc1ccc(C2=C(c3cc(OC)c(OC)c(OC)c3)C(=O)N(CC(=O)c3ccc(OCc4ccccc4)c(OC)c3)C2=O)cc1OC
pEC50: 6.96

COc1ccc(C2=C(c3ccc(OC)c(OC)c3)C(=O)N(CC(=O)c3ccc(OCc4ccccc4)c(OC)c3)C2=O)cc1OC
pEC50: 7.03
